Results taken from patent publication US9815796B2 (Merck Sharp & Dohme Corp., priority 2013, dated 2017).

Target: human PDE2A1 (Homo sapiens (Human), UniProt O00408)
Test: IMAP FP PDE selectivity panel, human PDE2A1
Assay type: biochemical
Details: Human PDE2, Lab B; read-out: Human PDE2 Ki (nM) - Lab B
Description: Selectivity for PDE2, as compared to other PDE families, was assessed using the IMAP® technology. Human PDE 10A2 enzyme was prepared from cytosolic fractions of transiently transfected HEK cells. All other PDE's were GST Tag human enzyme expressed in insect cells and were obtained from BPS Bioscience (San Diego, Calif.): PDE1A (Cat#60010), human PDE2A1 (Cat#60020), PDE3A (Cat#60030), PDE4A1A (Cat#60040), PDE5A1 (Cat#60050), PDE6C (Cat#60060), PDE7A (Cat#60070), PDE8A1 (Cat#60080), PDE9A2 (Cat#60090), PDE11A4 (Cat#60110).
Assays for PDE 1 through 11 were performed in parallel at room temperature in 384-well microtiter plates with an incubation volume of 20.2 μL. Solutions of test compounds were prepared in DMSO and serially diluted with DMSO to yield 30 μL of each of ten solutions differing by 3-fold in concentration, at 32 serial dilutions per plate. […] A Labcyte POD 810 (Labcyte, Sunnyvale, Calif.) was used to dispense 200 nL from each well of the titration plate to make eleven copies of the assay plate for each titration, one copy for each PDE enzyme. A solution of each enzyme (dilution from aliquots, sufficient to produce 20% substrate conversion) and a separate solution of FAM-labeled cAMP or FAM-labeled cGMP from Molecular Devices (Sunnyvale, Calif., product # R7506 or cGMP#R7508), at a final concentration of 50 nM were made in the assay buffer (10 mM Tris HCl, pH 7.2, 10 mM MgCl2, 0.05% NaN3 0.01% Tween-20, and 1 mM DTT). Note that the substrate for PDE2 is 50 nM FAM cAMP containing 1000 nM of cGMP. The enzyme and the substrate were then added to the assay plates in two consecutive additions of 10 μL and then shaken to mix. The reaction was allowed to proceed at room temperature for 60 minutes. A binding solution was then made from the kit components, comprised of 80% Solution A, 20% Solution B and binding reagent at a volume of 1/600 the total binding solution. The enzymatic reaction was stopped by addition of 60 μL of the binding solution to each well of the assay plate. The plates were sealed and shaken for 10 seconds. The plates were incubated at room temperature for one hour, then the parallel and perpendicular fluorescence was measured using a Tecan Genios Pro plate reader (Tecan, Switzerland). The apparent inhibition constants for the compounds against all 11 PDE's was determined from the parallel and perpendicular fluorescent readings as described for PDE10 FP assay using the following apparent KM values for each enzyme and substrate combination: PDE1A (FAM cGMP) 70 nM, human PDE2A1 (FAM cAMP) 10,000 nM, PDE3A (FAM cAMP) 50 nM, PDE4A1A (FAM cAMP) 1500 nM, PDE5A1 (FAM cGMP) 400 nM, PDE6C (FAM cGMP) 700 nM, PDE7A (FAM cAMP) 150 nM, PDE8A1 (FAM cAMP) 50 nM, PDE9A2 (FAM cGMP) 60 nM, PDE10A2 (FAM cAMP) 150 nM, PDE11A4 (FAM cAMP) 1000 nM. The intrinsic PDE2 inhibitory activity of a compound which may be used in accordance with the present invention may be determined by these assays.

Sequence of human PDE2A1 (O00408 other isoform, or with tags, fused parts or gaps): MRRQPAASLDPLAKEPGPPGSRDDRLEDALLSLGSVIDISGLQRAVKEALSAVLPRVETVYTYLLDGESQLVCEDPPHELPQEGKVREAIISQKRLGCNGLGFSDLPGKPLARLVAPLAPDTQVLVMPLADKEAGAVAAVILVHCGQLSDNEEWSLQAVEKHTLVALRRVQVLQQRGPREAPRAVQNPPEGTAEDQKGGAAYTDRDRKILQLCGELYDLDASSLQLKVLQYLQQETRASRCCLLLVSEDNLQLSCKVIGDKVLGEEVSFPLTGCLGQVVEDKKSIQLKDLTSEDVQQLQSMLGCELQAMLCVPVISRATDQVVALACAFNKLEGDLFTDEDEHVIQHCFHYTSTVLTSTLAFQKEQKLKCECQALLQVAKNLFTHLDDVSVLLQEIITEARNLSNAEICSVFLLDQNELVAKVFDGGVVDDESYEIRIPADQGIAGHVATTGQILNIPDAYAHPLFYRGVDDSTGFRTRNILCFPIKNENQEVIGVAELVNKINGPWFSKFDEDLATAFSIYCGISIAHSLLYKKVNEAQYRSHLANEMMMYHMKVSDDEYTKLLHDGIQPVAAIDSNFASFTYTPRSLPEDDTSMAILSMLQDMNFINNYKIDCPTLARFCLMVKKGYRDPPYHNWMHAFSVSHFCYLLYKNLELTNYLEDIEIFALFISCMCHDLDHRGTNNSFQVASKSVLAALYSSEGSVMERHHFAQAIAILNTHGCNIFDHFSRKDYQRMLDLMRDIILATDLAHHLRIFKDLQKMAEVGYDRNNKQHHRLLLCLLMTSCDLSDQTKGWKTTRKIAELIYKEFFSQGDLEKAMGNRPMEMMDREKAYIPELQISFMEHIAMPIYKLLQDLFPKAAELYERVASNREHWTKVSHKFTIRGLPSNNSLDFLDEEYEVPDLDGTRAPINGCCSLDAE

| SMILES | Ki |
| --- | --- |
| Cc1nc(C(=O)N[C@@H](c2ccc(C3(C)CC3)cc2)C(C)C)cc(=O)[nH]1 [Example 532, 2-methyl-N-{(1R)-2-methyl-1-[4-(1-methylcyclopropyl)phenyl]propyl}-6-oxo-1,6-dihydropyrimidine-4-carboxamide] | 16 nM |
| CC(C)[C@@H](NC(=O)c1cc(=O)[nH]c(-c2ccccc2)n1)c1ccc(C2(C)CC2)cc1 [Example 533, N-{(1R)-2-methyl-1-[4-(1-methylcyclopropyl)phenyl]propyl}-6-oxo-2-phenyl-1,6-dihydropyrimidine-4-carboxamide] | 8 nM |
| Cc1nc(C(=O)NC2(c3ccc4c(c3)OC(F)(F)O4)CC2)cc(=O)[nH]1 [Example 534, N-[1-(2,2-difluoro-1,3-benzodioxol-5-yl)cyclopropyl]-2-methyl-6-oxo-1,6-dihydropyrimidine-4-carboxamide] | 87 nM |
| CC(C)(C)[C@@H](NC(=O)c1cc(=O)[nH]c(-c2ccccc2)n1)c1ccc(CC(F)(F)F)cc1 [Example 537, N-{(1R)-2,2-dimethyl-1-[4-(2,2,2-trifluoroethyl)phenyl]propyl}-6-oxo-2-phenyl-1,6-dihydropyrimidine-4-carboxamide] | 2.4 nM |
| CC(C)(C)[C@@H](NC(=O)c1cc(=O)[nH]c(-c2ccccc2)n1)c1ccc(C2CC2)c(F)c1 [Example 539, N-[(1R)-1-(4-cyclopropyl-3-fluorophenyl)-2,2-dimethylpropyl]-6-oxo-2-phenyl-1,6-dihydropyrimidine-4-carboxamide] | 1.2 nM |
| CC(C)(C)[C@@H](NC(=O)c1cc(=O)[nH]c(-c2ccccc2)n1)c1ccc(S(F)(F)(F)(F)F)cc1 [Example 540, N-{(1R)-2,2-dimethyl-1-[4-(pentafluoro-λ^6-sulfanyl)phenyl]propyl}-6-oxo-2-phenyl-1,6-dihydropyrimidine-4-carboxamide] | 1.6 nM |
| CC(C)(C)[C@@H](NC(=O)c1cc(=O)[nH]c(-c2ccccc2)n1)c1ccc(OC(F)(F)F)c(F)c1 [Example 542, N-{(1R)-1-[3-fluoro-4-(trifluoromethoxy)phenyl]-2,2-dimethylpropyl}-6-oxo-2-phenyl-1,6-dihydropyrimidine-4-carboxamide] | 1.4 nM |
| CC(C)[C@@H](NC(=O)c1cc(=O)[nH]c(-c2ccccc2)n1)c1ccc(OC(F)F)cc1 [Example 543, N-{(1R)-1-[4-(difluoromethoxy)phenyl]-2-methylpropyl}-6-oxo-2-phenyl-1,6-dihydropyrimidine-4-carboxamide] | 5.2 nM |
| O=C(N[C@@H](c1ccc(C2CC2)cc1)C1CC1)c1cc(=O)[nH]c(-c2ccccc2)n1 [Example 544, N-[(R)-cyclopropyl(4-cyclopropylphenyl)methyl]-6-oxo-2-phenyl-1,6-dihydropyrimidine-4-carboxamide] | 2.4 nM |
| CC(C)(C)[C@@H](NC(=O)c1cc(=O)[nH]c(-c2ccccc2)n1)c1ccc(C(F)(F)F)cc1F [Example 545, N-{(1R)-1-[2-fluoro-4-(trifluoromethyl)phenyl]-2,2-dimethylpropyl}-6-oxo-2-phenyl-1,6-dihydropyrimidine-4-carboxamide] | 1.2 nM |
| O=C(N[C@@H](c1ccc(C2CC2)c(F)c1)C1CC1)c1cc(=O)[nH]c(-c2ccccc2)n1 [Example 546, N-[(R)-cyclopropyl(4-cyclopropyl-3-fluorophenyl)methyl]-6-oxo-2-phenyl-1,6-dihydropyrimidine-4-carboxamide] | 3.8 nM |
| CC(C)c1ccc([C@H](NC(=O)c2cc(=O)[nH]c(-c3ccccc3)n2)C2(C)CC2)cc1 [Example 547, N-{(R)-(1-methylcyclopropyl)[4-(1-methylethyl)phenyl]methyl}-6-oxo-2-phenyl-1,6-dihydropyrimidine-4-carboxamide] | 1.8 nM |
| O=C(N[C@@H]1COCc2cc(C(F)(F)F)ccc21)c1cc(=O)[nH]c(-c2ccccc2)n1 [Example 551, 6-oxo-2-phenyl-N-[(4S)-7-(trifluoromethyl)-3,4-dihydro-1H-isochromen-4-yl]-1,6-dihydropyrimidine-4-carboxamide] | 157 nM |
| O=C(NC1(c2ccc(S(F)(F)(F)(F)F)cc2)CC1)c1cc(=O)[nH]c(-c2ccccc2)n1 [Example 553, 6-oxo-N-{1-[4-(pentafluoro-λ^6-sulfanyl)phenyl]cyclopropyl}-2-phenyl-1,6-dihydropyrimidine-4-carboxamide] | 10 nM |

Further lines, results first:

| Ki | SMILES |
| --- | --- |
| 24 nM | O=C(NC1(c2ccc3c(c2)OC(F)(F)O3)CC1)c1cc(=O)[nH]c(-c2ccccc2)n1 [Example 535, N-[1-(2,2-difluoro-1,3-benzodioxol-5-yl)cyclopropyl]-6-oxo-2-phenyl-1,6-dihydropyrimidine-4-carboxamide] |
| 0.51 nM | CC(C)(C)[C@@H](NC(=O)c1cc(=O)[nH]c(-c2ccccc2)n1)c1ccc(C2CC2)cc1 [Example 536, N-[(1R)-1-(4-cyclopropylphenyl)-2,2-dimethylpropyl]-6-oxo-2-phenyl-1,6-dihydropyrimidine-4-carboxamide] |
| 1.4 nM | CC(C)(C)[C@@H](NC(=O)c1cc(=O)[nH]c(-c2ccccc2)n1)c1ccc(C(F)(F)F)c(F)c1 [Example 538, N-{(1R)-1-[3-fluoro-4-(trifluoromethyl)phenyl]-2,2-dimethylpropyl}-6-oxo-2-phenyl-1,6-dihydropyrimidine-4-caboxamide] |
| 1.3 nM | CC(C)(C)[C@@H](NC(=O)c1cc(=O)[nH]c(-c2ccccc2)n1)c1ccc(SC(F)(F)F)cc1 [Example 541, N-[(1R)-2,2-dimethyl-1-{4-[(trifluoromethyl)sulfanyl]phenyl}propyl]-6-oxo-2-phenyl-1,6-dihydropyrimidine-4-carboxamide] |
| 4.5 nM | CC1([C@@H](NC(=O)c2cc(=O)[nH]c(-c3ccccc3)n2)c2ccc(OC(F)F)cc2)CC1 [Example 548, N-[(R)-[4-(difluoromethoxy)phenyl](1-methylcyclopropyl)methyl]-6-oxo-2-phenyl-1,6-dihydropyrimidine-4-carboxamide] |
| 4.5 nM | CC1([C@@H](NC(=O)c2cc(=O)[nH]c(-c3ccccc3)n2)c2ccc(S(F)(F)(F)(F)F)cc2)CC1 [Example 549, N-{(R)-(1-methylcyclopropyl)[4-(pentafluoro-λ^6-sulfanyl)phenyl]methyl}-6-oxo-2-phenyl-1,6-dihydropyrimidine-4-carboxamide] |
| 17 nM | C[C@@H](NC(=O)c1cc(=O)[nH]c(-c2ccccc2)n1)c1cc(F)c(C(F)(F)F)cc1F [Example 550, N-{(1R)-1-[2,5-difluoro-4-(trifluoromethyl)phenyl]ethyl}-6-oxo-2-phenyl-1,6-dihydropyrimidine-4-carboxamide] |
| 96 nM | O=C(N[C@@H]1CCCc2cc(C(F)(F)F)ccc21)c1cc(=O)[nH]c(-c2ccccc2)n1 [Example 552, 6-oxo-2-phenyl-N-[(1R)-6-(trifluoromethyl)-1,2,3,4-tetrahydronaphthalen-1-yl]-1,6-dihydropyrimidine-4-carboxamide] |
| 8.2 nM | CC(C)(C)[C@@H](NC(=O)c1cc(=O)[nH]c(-c2ncccn2)n1)c1ccc(OC(F)(F)F)c(F)c1 [Example 554, N-{(1R)-1-[3-fluoro-4-(trifluoromethoxy)phenyl]-2,2-dimethylpropyl}-6-oxo-1,6-dihydro-2,2′-bipyrimidine-4-carboxamide] |
| 4.5 nM | CC(C)(C)[C@@H](NC(=O)c1cc(=O)[nH]c(-c2ncccn2)n1)c1ccc(SC(F)(F)F)cc1 [Example 555, N-[(1R)-2,2-dimethyl-1-{4-[(trifluoromethyl)sulfanyl]phenyl}propyl]-6-oxo-1,6-dihydro-2,2′-bipyrimidine-4-carboxamide] |
| 7.7 nM | CC(C)(C)[C@@H](NC(=O)c1cc(=O)[nH]c(-c2ncccn2)n1)c1ccc(C(F)(F)F)c(F)c1 [Example 556, N-{(1R)-1-[3-fluoro-4-(trifluoromethyl)phenyl]-2,2-dimethylpropyl}-6-oxo-1,6-dihydro-2,2′-bipyrimidine-4-carboxamide] |
